Peptide text beside a SMILES is read from it.
Key:
Urotensin-2 receptor = biological target: T1, Urotensin-2 receptor (Homo sapiens, UniProt Q9UKP6); assay: Agonist activity at human GPR14 expressed in HEK293 cells by calcium mobilization assay; assay type: functional, cell-based
T1 sequence (Q9UKP6 whole entry): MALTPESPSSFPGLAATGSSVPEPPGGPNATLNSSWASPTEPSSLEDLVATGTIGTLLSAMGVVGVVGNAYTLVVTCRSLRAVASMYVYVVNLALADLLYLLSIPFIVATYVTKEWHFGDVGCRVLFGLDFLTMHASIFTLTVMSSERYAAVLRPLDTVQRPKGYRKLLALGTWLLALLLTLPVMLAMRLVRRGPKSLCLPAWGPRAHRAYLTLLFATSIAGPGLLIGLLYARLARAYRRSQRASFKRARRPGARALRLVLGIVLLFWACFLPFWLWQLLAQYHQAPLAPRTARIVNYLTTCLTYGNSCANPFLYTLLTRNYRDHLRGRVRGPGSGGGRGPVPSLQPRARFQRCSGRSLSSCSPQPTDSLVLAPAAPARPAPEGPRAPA

[1] = biological target: T2, Urotensin-2 receptor (Homo sapiens) (UniProt Q9UKP6); assay: Agonist activity at human GPR14 expressed in HEK293 cells by calcium mobilization assay relative to urotensin 2; assay type: functional, cell-based
T2 sequence (whole entry): T1 sequence (Q9UKP6 whole entry)

| Compound | EC50 (Urotensin-2 receptor) [nM] | Emax [1] [%] |
| --- | --- | --- |
| NCCCC[C@@H]1NC(=O)[C@H](Cc2c[nH]c3ccccc23)NC(=O)[C@H](Cc2ccccc2)NC(=O)CNC(=O)[C@@H]2CCCN2C(=O)[C@H](Cc2ccccc2)NC1=O (cyclo(FPGFWK)) | 13.2 | 101 |
| NCCCC[C@@H]1NC(=O)[C@H](Cc2c[nH]c3ccccc23)NC(=O)[C@H](CO)NC(=O)CNC(=O)[C@@H]2CCCN2C(=O)[C@H](Cc2ccccc2)NC1=O (cyclo(FPGSWK)) | 10.1 | 96 |
| NCCCC[C@@H]1NC(=O)[C@H](Cc2c[nH]c3ccccc23)NC(=O)[C@H](Cc2ccc(O)cc2)NC(=O)CNC(=O)[C@@H]2CCCN2C(=O)[C@H](Cc2ccccc2)NC1=O (cyclo(FPGYWK)) | 75.7 | 102 |
| NCCCC[C@@H]1NC(=O)[C@H](Cc2c[nH]c3ccccc23)NC(=O)[C@H](Cc2ccccc2)NC(=O)CNC(=O)[C@@H]2CCCN2C(=O)[C@H](Cc2c[nH]c3ccccc23)NC1=O (cyclo(FWKWPG)) | 20.6 | 92 |
| NCCCC[C@@H]1NC(=O)[C@H](Cc2c[nH]c3ccccc23)NC(=O)[C@H](Cc2ccccc2)NC(=O)CNC(=O)[C@@H]2CCCN2C(=O)[C@H](Cc2ccc(O)cc2)NC1=O (cyclo(FWKYPG)) | 6.94 | 98 |
| NCCCC[C@@H]1NC(=O)[C@H](Cc2c[nH]c3ccccc23)NC(=O)[C@H](CO)NC(=O)CNC(=O)[C@@H]2CCCN2C(=O)[C@H](Cc2c[nH]c3ccccc23)NC1=O (cyclo(GSWKWP)) | 16.7 | 100 |
| NCCCC[C@@H]1NC(=O)[C@H](Cc2c[nH]c3ccccc23)NC(=O)[C@H](CO)NC(=O)CNC(=O)[C@@H]2CCCN2C(=O)[C@H](Cc2ccc(O)cc2)NC1=O (cyclo(GSWKYP)) | 8.51 | 108 |
| NCCCC[C@@H]1NC(=O)[C@H](Cc2c[nH]c3ccccc23)NC(=O)[C@H](Cc2ccc(O)cc2)NC(=O)CNC(=O)[C@@H]2CCCN2C(=O)[C@H](Cc2ccc(O)cc2)NC1=O (cyclo(GYWKYP)) | 12.6 | 86 |
